Laboratory results reported in PMC7915765, “Biochemical Characterization, Specificity and Inhibition Studies of HTLV-1, HTLV-2, and HTLV-3 Proteases” (Life, 2021).
Where two headings read alike, the source gives them in different places.

Assays:
[1] = system: HTLV-1 PR; details: cited from earlier work
From the text: Table 2 Catalytic efficiencies of HTLV PRs on different substrates representing natural cleavage site sequences. Cleavage sites are labelled by asterisks within the sequences. Abbreviations: MA (matrix), CA (capsid), NC (nucleocapsid), and TF1 (trans-frame 1). | column: kcat/KM [mM^−1 s^−1] / HTLV-1 PR || Table 3 Catalytic efficiencies of HTLV PRs on different substrates representing natural cleavage site sequences of viruses other than HTLV. Cleavage sites are labelled by an asterisk within the sequences. Abbreviations: MA (matrix), CA (capsid), NC (nucleocapsid), TF (transframe), RT (reverse-transcriptase), and IN (integrase). | column: Substrate; kcat/KM (mM^−1 s^−1) / HTLV-1 PR ^1

[2] = system: HIV-1 PR; details: cleavage sites of viruses other than HTLV, retrieved from the literature, ref [28]; cited from earlier work
From the text: Table 3 Catalytic efficiencies of HTLV PRs on different substrates representing natural cleavage site sequences of viruses other than HTLV. Cleavage sites are labelled by an asterisk within the sequences. Abbreviations: MA (matrix), CA (capsid), NC (nucleocapsid), TF (transframe), RT (reverse-transcriptase), and IN (integrase). | column: kcat/KM (mM^−1 s^−1) / HIV-1 PR ^1

[3] = molecular target: HTLV-2 PR (Human T-cell leukemia virus 2, UniProt P03363); experiment: Protease activity assay with oligopeptide substrates (RP-HPLC), HTLV-2 PR; format: biochemical, human T-cell leukemia virus type 2; design: made in house; host or cells: E. coli BL21(DE3); details: pH 5.6, 37 °C
Chain of HTLV-2 PR (P03363 447-571): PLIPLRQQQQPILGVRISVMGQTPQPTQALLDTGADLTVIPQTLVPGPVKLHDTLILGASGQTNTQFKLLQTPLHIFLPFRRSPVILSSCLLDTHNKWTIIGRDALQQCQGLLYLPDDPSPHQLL
From the text: (§1) The oligopeptides representing the naturally occurring matrix/capsid (MA/CA), capsid/nucleocapsid (CA/NC), trans-frame protein/protease (TF1/PR), and PR/p1 cleavage sites of HTLV-1, -2, and -3 PRs were used as substrates. The oligopeptide substrates representing the natural sequences of HTLV PRs were ordered from BioBasic, while the oligopeptide substrates representing naturally occurring cleavage sites of various viruses, or the wild-type, the shortened, and the P4, P3, P2, P1, or P1′ variants of HTLV-1 MA/CA cleavage site (KTKVL*VVQPK) were in-house stocks. All peptides were dissolved in distilled water.
(§2) For kinetic measurements, we applied 10 µL 2× incubation buffer (0.5 M K3PO4, 4 M NaCl, 10 v/v% glycerol, 10 mM DTT, pH 5.6), 5 µL of HTLV-1, HTLV-2, or HTLV-3 PR (final concentration of the active enzyme was in 0.1–34.4 nM), and 0.5–5 µL oligopeptide substrate representing HTLV PR natural cleavage sites (0.05–1.10 mM final concentration). The final volume of the reaction mixture was set to 20 µL with distilled water if it was necessary. The reactions were initiated by the addition of the enzyme, were incubated at 37 °C for 0.5–4 h, and stopped by the addition of 180 µL 1 v/v% TFA. For substrates representing natural cleavage sites of retroviruses other than HTLV-1, -2, and -3 PRs (HIV-1, equine infectious anemia virus (EIAV), Rous sarcoma virus (RSV), mouse mammary tumor virus (MMTV), Mason-Pfizer monkey virus (MPMV), and murine leukemia virus (MuLV) and BLV) in a longer incubation time (24 h) was also applied. The cleavage products were separated by using a Nova-Pack C18 RP-HPLC column (3.9 mm × 150 mm, Waters Associates Inc, Milford, MA, USA) on HPLC (Merck-Hitachi LaChrom). Water-acetonitrile gradient (0–100%) was used for separation in the presence of 0.05% TFA at 2 mL/min flow rate. The kinetic parameters were determined by fitting the data—obtained at less than 20% substrate hydrolysis—to the Michaelis–Menten equation. The Gaussian equation was used to determine pH optimum and exponential growth equation for determination of optimal NaCl concentration, while linear regression was applied to plot the dependence of enzyme activity on temperature. Prism8 software (GraphPad Software Inc., San Diego, CA, USA) was used for evaluation. The kcat/KM catalytic constants were calculated based on the active enzyme concentration, which was determined by active site titration using the method described previously.

[4] = molecular target: HTLV-3 PR (Human T-cell leukemia virus 3, UniProt Q4U0X6); experiment: Protease activity assay with oligopeptide substrates (RP-HPLC), HTLV-3 PR; format: biochemical, human T-cell leukemia virus type 3; design: made in house; host or cells: E. coli BL21(DE3), pET11a; details: pH 5.6, 37 °C
Chain of HTLV-3 PR (Q4U0X6 431-553): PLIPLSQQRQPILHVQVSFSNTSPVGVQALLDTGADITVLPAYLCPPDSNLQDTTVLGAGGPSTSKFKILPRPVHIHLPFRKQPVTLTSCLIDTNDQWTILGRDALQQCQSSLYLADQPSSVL
From the text: as §1, §2

[5] = cleavage sites of viruses other than HTLV, retrieved from the literature, ref [28]
[6] = cleavage sites of viruses other than HTLV, longer incubation time (24 h) also applied
[7] = natural HTLV-1 cleavage site substrates, previously reported values, ref [34]
[8] = natural HTLV cleavage sites, substrate 0.05–1.10 mM, 2× buffer 0.5 M K3PO4, 4 M NaCl, 10 v/v% glycerol, 10 mM DTT, 0.5–4 h

Substance	kcat/KM [1, 5]	kcat/KM [2]	kcat/KM [3, 6]	kcat/KM [4, 6]	kcat/KM [1, 7]	kcat/KM [3, 8] [M⁻¹ s⁻¹]	kcat/KM [4, 8] [M⁻¹ s⁻¹]
PPYVG*SGLYP [RSV P2B/P10, oligopeptide substrate PPYVG*SGLYP]	not cleaved	not cleaved	not cleaved	not cleaved			
DPASIL*PVIP [HTLV-1 TF1/PR, oligopeptide substrate DPASIL*PVIP]					3.8 ± 0.6 ^1 mM^−1 s^−1	400 ± 100	1200 ± 400
SDLVL*LSAEARR [MMTV MA/PP21, oligopeptide substrate SDLVL*LSAEARR]	not cleaved	6900 M⁻¹ s⁻¹	not cleaved	not cleaved			
PPAVS*LAMTM [RSV NC/PR, oligopeptide substrate PPAVS*LAMTM]	not cleaved	130 M⁻¹ s⁻¹	not cleaved	not cleaved			
KTKVL*VVQPK [HTLV-1 CA/NC, oligopeptide substrate KTKVL*VVQPK]					150.6 ± 15.1 ^1 mM^−1 s^−1	67200 ± 33400	30100 ± 15400
KGPPVIL*PIQAP [HTLV-1 PR/P1, oligopeptide substrate KGPPVIL*PIQAP]					288.3 ± 73.6 ^1 mM^−1 s^−1	20600 ± 2800	238400 ± 60100
ERQAN*FLGKI [HIV-1 NC/P1, oligopeptide substrate ERQAN*FLGKI]	not cleaved	1000 M⁻¹ s⁻¹	not cleaved	not cleaved			
LTFTF*PVVFMRR [MMTV N/CA, oligopeptide substrate LTFTF*PVVFMRR]	0.01 mM⁻¹ s⁻¹	900 M⁻¹ s⁻¹	not cleaved	not cleaved			
PPMVG*VLDAP [BLV PR/P13, oligopeptide substrate PPMVG*VLDAP]	0.7 mM⁻¹ s⁻¹	40 M⁻¹ s⁻¹	not cleaved	not cleaved			
AKLVL*AQLSK [EIAV PR/RT, oligopeptide substrate AKLVL*AQLSK]	not cleaved	13400 M⁻¹ s⁻¹	not cleaved	not cleaved			
TATIM*MQRGN [HIV-1 P2/NC, oligopeptide substrate TATIM*MQRGN]	not cleaved	74000 M⁻¹ s⁻¹	not cleaved	not cleaved			
VSQNY*PIVQ [HIV-1 MA/CA, oligopeptide substrate VSQNY*PIVQ]	not cleaved	45300 M⁻¹ s⁻¹	not cleaved	not cleaved			
APQVL*PVMHP [HTLV-1 MA/CA, oligopeptide substrate APQVL*PVMHP]					85.2 ± 26.1 ^1 mM^−1 s^−1	5500 ± 1000	32500 ± 6700
KARVL*AEAMS [HIV-1 CA/P2, oligopeptide substrate KARVL*AEAMS]	not cleaved	90000 M⁻¹ s⁻¹	not cleaved	not cleaved			
CTLNF*PISP [HIV-1 PR/RT, oligopeptide substrate CTLNF*PISP]	not cleaved	24100 M⁻¹ s⁻¹	not cleaved	not cleaved			
TSTLL*IENSS [MuLV RT/IN, oligopeptide substrate TSTLL*IENSS]	not cleaved	not cleaved	not cleaved	not cleaved			
TQTSLL*TLDDQ [MuLV NC/PR, oligopeptide substrate TQTSLL*TLDDQ]	not cleaved	not cleaved	not cleaved	not cleaved			
DELIL*PVKRK [MMTV P3/P8, oligopeptide substrate DELIL*PVKRK]	2.6 mM⁻¹ s⁻¹	1500 M⁻¹ s⁻¹	not cleaved	not cleaved			
RATVL*TVALH [RSV PR’/RT, oligopeptide substrate RATVL*TVALH]	0.3 mM⁻¹ s⁻¹	1900 M⁻¹ s⁻¹	not cleaved	not cleaved			
TFQAY*PLREA [RSV RT/IN, oligopeptide substrate TFQAY*PLREA]	not cleaved	180 M⁻¹ s⁻¹	not cleaved	not cleaved			
IAAAM*SSAIQ [RSV CA/P3, oligopeptide substrate IAAAM*SSAIQ]	not cleaved	not cleaved	not cleaved	not cleaved			
PRSSLY*PALTP [MuLV MA/P12, oligopeptide substrate PRSSLY*PALTP]	not cleaved	200 M⁻¹ s⁻¹	not cleaved	not cleaved			
TSQAF*PLRAG [MuLV P12/CA, oligopeptide substrate TSQAF*PLRAG]	not cleaved	8700 M⁻¹ s⁻¹	not cleaved	not cleaved			
PPVGFAG*AMA [MMTV P8/N, oligopeptide substrate PPVGFAG*AMA]	not cleaved	<10 M⁻¹ s⁻¹	not cleaved	not cleaved			
KEEIM*LAYQG [EIAV RT/RH, oligopeptide substrate KEEIM*LAYQG]	<0.01 mM⁻¹ s⁻¹	18300 M⁻¹ s⁻¹	not cleaved	not cleaved			
KQPAIL*VHTPG [BLV CA/NC, oligopeptide substrate KQPAIL*VHTPG]	not cleaved	not cleaved	not cleaved	not cleaved			
PVVAM*PVVIK [RSV P10/CA, oligopeptide substrate PVVAM*PVVIK]	0.1 mM⁻¹ s⁻¹	not cleaved	not cleaved	not cleaved			
PPAIL*PIISE [BLV MA/CA, oligopeptide substrate PPAIL*PIISE]	164.5 mM⁻¹ s⁻¹	300 M⁻¹ s⁻¹	not cleaved	not cleaved			
PSEEY*PIMID [EIAV MA/CA, oligopeptide substrate PSEEY*PIMID]	0.7 mM⁻¹ s⁻¹	15200 M⁻¹ s⁻¹	not cleaved	not cleaved			
VSFNF*PQITL [HIV-1 TF/PR, oligopeptide substrate VSFNF*PQITL]	not cleaved	6900 M⁻¹ s⁻¹	not cleaved	not cleaved			
